Assay results taken from patent EP0326331B1, “Substituted quinolines and cinnolines” (Dow AgroSciences LLC, priority 1988, dated 1989).

Key:
Assay type in all cases: in vivo
[1] = test system: Twospotted spider mites (Tetranychus urticae Koch); assay: Mite/insect screen, SM; conditions: Tetranychus urticae, foliar, percent mortality; rate 200 ppm, foliar spray on squash; read-out: SM RESULTS %
Summary of the method: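 Compounds dissolved in 50:50 acetone/alcohol containing sulfonate/nonionic emulsifier blends, then diluted with water to the indicated concentrations. Leaves sprayed on both surfaces to runoff at 10 psi and dried one hour. Percent mortality scored after standard exposure periods.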

[2] = test system: Cercospora beticola (leaf spot); assay: Test 1 greenhouse foliar spray screen, leaf spot on sugar beet; conditions: disease control rating, foliar spray on sugar beet, 400 ppm (+++ at 100 ppm)
[3] = test system: southern armyworm (Spodopetra eridania Cramer); assay: Mite/insect screen, SAW; conditions: Spodoptera eridania, foliar, percent mortality; rate 200 ppm, foliar spray on squash; read-out: SAW RESULTS %
Summary of the method: (§1)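 Formulation: acetone/alcohol 50:50 + sulfonate/nonionic emulsifiers, water-diluted to indicated concs. Spray both leaf surfaces to runoff, 10 psi; dry 1 h. Armyworm: 2 excised uninfested leaves in Petri dish. Score % mortality after standard exposure.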

[4] = test system: Venturia inaequalis (apple scab); assay: Test 1 greenhouse foliar spray screen, apple scab on apple seedling; conditions: disease control rating, foliar spray on apple seedling, 400 ppm (+++ at 100 ppm)
[5] = test system: Pyricularia oryzae (rice blast); assay: whole plant or invertebrate; conditions: disease control rating, foliar spray on rice, 400 ppm (+++ at 100 ppm)
[6] = test system: Puccinia recondita tritici (leaf rust); assay: Test 1 greenhouse foliar spray screen, leaf rust on wheat; conditions: disease control rating, foliar spray on wheat, 400 ppm (+++ at 100 ppm)
[7] = test system: Botrytis cinerea (gray mold); assay: Test 1 greenhouse foliar spray screen, gray mold on grape berries; conditions: disease control rating, spray on grape berries, 400 ppm (+++ at 100 ppm)
[8] = test system: melon aphids (Aphis gossypii Glover); assay: Mite/insect screen, MA; conditions: Aphis gossypii, foliar, percent mortality; rate 200 ppm, foliar spray on squash; read-out: MA RESULTS %
Summary of the method: as §1

[9] = test system: Septoria tritici (leaf blotch); assay: Test 1 greenhouse foliar spray screen, leaf blotch on wheat; conditions: disease control rating, foliar spray on wheat, 400 ppm (+++ at 100 ppm)
corn rootworm = assay: Mite/insect screen, CRW; conditions: percent mortality; CRW rate 12.00 ppm; read-out: CRW RESULTS %
Summary of the method: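 Percent mortality is evaluated once the standard exposure period ends. Test material is applied as a water dilution of an acetone/alcohol (50:50) stock carrying two sulfonate/nonionic emulsifiers (23 and 13 g per liter).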

[10] = test system: Pseudoperonospora cubensis (downy mildew); assay: Test 1 greenhouse foliar spray screen, downy mildew on squash; conditions: disease control rating, foliar spray on squash, 400 ppm (+++ at 100 ppm)
[11] = test system: Erysiphe graminis tritici (powdery mildew); assay: Test 1 greenhouse foliar spray screen, powdery mildew on wheat; conditions: disease control rating, foliar spray on wheat, 400 ppm (+++ at 100 ppm)

CC(Cc1cccs1)Nc1ccnc2c(F)cccc12 (stereo not drawn) [Example 170, 8-fluoro-N-[1-methyl-2-(2-thienyl)ethyl]-4-quinolinamine]
+ (20-89% control at 400 ppm): RICE BLAST [5] | DOWN MDEW [10] | POWD MDEW [11]
++ (90-100% control at 400 ppm): LEAF RUST [6]
- (0-19% control at 400 ppm): LEAF SPOT [2] | APPL SCAB [4] | GRAY MOLD [7] | LEAF BLOT [9]
0%: mortality at 200 ppm [1] | mortality at 200 ppm [3] | mortality at 200 ppm [8] | mortality at 12 ppm (corn rootworm)

CC(Cc1cccs1)Nc1ccnc2ccccc12 (stereo not drawn) [Example 171, N-[1-methyl-2-(2-thienyl)ethyl]-4-quinolinamine]
0%: mortality at 200 ppm [1] | mortality at 200 ppm [3] | mortality at 200 ppm [8] | mortality at 12 ppm (corn rootworm)
+ (20-89% control at 400 ppm): LEAF SPOT [2] | RICE BLAST [5] | LEAF RUST [6] | LEAF BLOT [9] | DOWN MDEW [10]
- (0-19% control at 400 ppm): APPL SCAB [4] | GRAY MOLD [7] | POWD MDEW [11]

Clc1cccc2c(NCCc3cccs3)ccnc12 [Example 172, 8-chloro-N-[2-(2-thienyl)ethyl]-4-quinolinamine]
+ (20-89% control at 400 ppm): RICE BLAST [5] | LEAF RUST [6] | DOWN MDEW [10] | POWD MDEW [11]
- (0-19% control at 400 ppm): LEAF SPOT [2] | APPL SCAB [4] | GRAY MOLD [7] | LEAF BLOT [9]
0%: mortality at 200 ppm [1] | mortality at 200 ppm [3] | mortality at 200 ppm [8] | mortality at 12 ppm (corn rootworm)

Fc1cccc2c(NCCC3COc4ccccc4O3)ccnc12 (stereo not drawn) [Example 174, N-[2-(2,3-dihydro-1,4-benzodioxin-2-yl)ethyl]-8-fluoro-4-quinolinamine]
0%: mortality at 200 ppm [1] | mortality at 200 ppm [3] | mortality at 200 ppm [8] | mortality at 12 ppm (corn rootworm)
++ (90-100% control at 400 ppm): LEAF RUST [6]
+++ (90-100% control at 100 ppm): DOWN MDEW [10]
- (0-19% control at 400 ppm): LEAF SPOT [2] | APPL SCAB [4] | GRAY MOLD [7]
+ (20-89% control at 400 ppm): RICE BLAST [5] | LEAF BLOT [9] | POWD MDEW [11]

Fc1cccc2c(NCCc3ccsc3)ccnc12 [Example 175, 8-fluoro-N-[2-(3-thienyl)ethyl]-4-quinolinamine]
+ (20-89% control at 400 ppm): RICE BLAST [5] | LEAF BLOT [9] | POWD MDEW [11]
- (0-19% control at 400 ppm): LEAF SPOT [2] | APPL SCAB [4] | GRAY MOLD [7]
+++ (90-100% control at 100 ppm): LEAF RUST [6] | DOWN MDEW [10]
0%: mortality at 200 ppm [1] | mortality at 200 ppm [3] | mortality at 200 ppm [8] | mortality at 12 ppm (corn rootworm)
